Test results as given in patent US7420100B2, “Methods and compositions relating to HDAC 4 and 5 regulation of cardiac gene expression” (Board of Regents, The University of Texas System, priority 1999, dated 2008).

Legend:
[1] = tested on: GAL4-MEF2C fusion protein; assay: activation of GAL4-MEF2C fusion protein in cardiomyocytes; assay type: cell-based, rat; conditions: stimulation of cardiomyocytes
Method: Preparation of primary rat cardiomyocytes. Cardiomyocyte cultures are prepared by dissociation of 1-day old neonatal rat hearts and were differentially plated to remove fibroblasts. To induce the hypertrophic response, AngII and PE are added to cardiomyocyte cultures at 10 nM and 10 μM, respectively, in serum-free M199 media. The culture media containing either agonist is changed every 12 hours for a period of 72 hours.
In light of the ability of MEF2 to respond to calcium-dependent signal transduction pathways in T cells, the inventors have investigated whether the same pathways also activate MEF2 in cardiomyocytes. […] When the C-terminus of MEF2C, which contains the transcription activation domains (TADs), but lacks the MADS and MEF2 domains required for DNA binding and dimerization, is fused to the DNA binding domain of the yeast transcription factor GAL4, the resulting GAL4-MEF2C fusion protein retains sensitivity to calcineurin and CaMKIV. This GAL4-MEF2C fusion protein is also activated by stimulation of cardiomyocytes with the hypertrophic agonist phenylephrine (PE).

[2] = tested on: HDAC 5-green fluorescent protein (GFP) chimeric molecule; assay: subcellular distribution of HDAC 5-GFP in CaMKI-expressing cells exposed to leptomycinB; assay type: cell-based; conditions: CaMKI-expressing cells treated with leptomycinB
Excerpt: In principle, nuclear exclusion of HDAC 5 could result from inhibition of nuclear import or stimulation of nuclear export. To distinguish between these possibilities, the subcellular distribution of an HDAC 5-green fluorescent protein (GFP) chimeric molecule was monitored in cells exposed to leptomycinB, a fungal toxin that blocks nuclear export. In CaMK1 expressing cells, HDAC 5 is localized to the cytoplasm.

cultured cardiomyocytes = conditions: α-adrenergic stimulation and Ca2+ channel agonists; cited from earlier work
[3] = tested on: hypertrophic response to endothelin-1; conditions: in vitro; cited from earlier work
BZLF1 = conditions: cited from earlier work

CNC[C@H](O)c1cccc(O)c1 [phenylephrine]
activation of GAL4-MEF2C fusion protein [1]: activated

CCC(=C/[C@H](C)C/C=C/C(C)=C/[C@@H](C)C(=O)[C@@H](C)[C@H](O)[C@@H](C)C/C(C)=C/C(=O)O)/C=C/[C@@H]1OC(=O)C=C[C@@H]1C [leptomycinB]
subcellular localization of HDAC 5 [2]: translocation of HDAC 5 from the cytoplasm to the nucleus
time course of HDAC 5 translocation from cytoplasm to nucleus [2]: 4 h

NCCCCCCNS(=O)(=O)c1cccc2c(Cl)cccc12 [W-7]
effect on hypertrophy (cultured cardiomyocytes): prevents hypertrophy

COc1ccc(S(=O)(=O)N(CCO)c2ccccc2CN(C)C/C=C/c2ccc(Cl)cc2)cc1 [KN-93]
effect on hypertrophic response to endothelin-1 [3]: can block the hypertrophic response

cyclosporin A [CsA]
effect on BZLF1 transcription (BZLF1): inhibited
